Entries after “also recorded” stand apart in the source; their conditions may differ.
Legend:
[1] = system: primary mouse hepatocytes; assay: MIEL-Rejuvenation in primary old hepatocytes; format: cell-based, mice; conditions: for outcome in high throughput screening using primary mouse hepatocytes (miBioAge): figure legends FIG. 63-65; for shift of epigenetic signature of old cells towards that of young cells: old hepatocytes
Description: To meet this challenge, techniques described herein were employed to analyze the effects of various drugs on the analysis of epigenome topography at the single cell level. Because of large numbers of cells required for drug screening, mice were used as a source of (C57BLACK/6) of liver hepatocytes (˜98% pure in the preparations) for probing whether epigenetic signature of aging is retained after short-term cultures of hepatocytes. […] The ability of hepatocytes to maintain age-related epigenetic or multiparametric signatures in cell culture conditions provides the foundation for high throughput screening.
These high content screenings using MIEL pipeline were conducted to adapt these assay conditions. Briefly, on day 0, 10,000 primary mouse hepatocytes per well were seeded in 384 well plates. Hepatocytes were isolated via a 2-step perfusion method yielding ˜98% pure population of primary hepatocytes. At 24 hrs after seeding, compounds were added in DMSO. Primary mouse hepatocytes were determined to tolerate DMSO concentrations of at least 0.1% (v/v) without adverse effects on cell growth or viability over 5 days (compared to no DMSO control). Using the Echo acoustic compound dispensing system and 10 mM stock concentration library plates, each of the drugs at concentrations up to 10 μM was sufficiently delivered. At 4 days after seeding, cells were fixed and immunolabeled with antibody to H3K9me3, H3K27me3, and H4K20me3 (initially in separate wells) to determine the efficiency of each individual mark and potential for synergy.

[2] = system: GBM2 cells; assay: Immunofluorescence of core TPC transcription factors and Ki67 in drug-treated cells; format: cell-based, human; conditions: for Sox2 expression: GBM2, 3 days treatment, Digitoxigenin 0.3 μM; for expression of the core transcription factors: GBM2, compared with serum and Bmp4; for Sall2 and Brn2 expression: GBM2, immunofluorescence
Experimental: Cell staining: Cells were rinsed with PBS and fixed in 4% paraformaldehyde in PBS for 10 min at room temperature. After blocking with PBSAT (2% BSA and 0.5% Triton X-100 in PBS) for 1 h at room temperature, the cells were incubated overnight at 4° C. with primary antibodies diluted in PBSAT. The primary antibodies are listed in Table 2, and the appropriate fluorochrome-conjugated secondary antibodies were used at 1:500 dilution. Nuclear co-staining was performed by incubating cells with Hoechst-33342 nuclear dye.
Microscopy and image analysis: Unless stated otherwise, for MIEL analysis cells were imaged on an Opera QEHS high-content screening system (PerkinElmer) using ×40 water immersion objectives. Images collected on the Opera were analyzed using Acapella 2.6 (PerkinElmer). At least 40 fields per well were acquired and at least 2 wells per population were used. Features of nuclear morphology, fluorescence intensity inter-channel co-localization, and texture features (Image moments, Haralick, Threshold Adjacency Statistics) were calculated using custom algorithms (scripts available from www.andrewslab.ca). A full list of the features used is available from the authors. Values for each cell were generated and exported to MATLAB for further analysis. For Sall2, Olig2, Brn2, Sox2, Oct4 and GFAP immunostaining, images were captured on an IC200-KIC (Vala Sciences) using a ×20 objective. Between 3 and 8 fields per well were acquired and analyzed using Acapella 2.6 (PerkinElmer). For all nuclear markers, average intensities in nucleus or fold change in average intensity compared to untreated cells are shown. Unless stated otherwise, at least 3 wells and a minimum of 300 cells for each condition were compared using unpaired two-tailed t-test was.
Microscopy and image analysis: For MIEL analysis, cells were imaged on either an Opera QEHS high-content screening system (PerkinElmer) using ×40 water immersion objectives or an IC200-KIC (Vala Sciences) using a ×20 objective. Images collected were analyzed using Acapella 2.6 (PerkinElmer). At least 40 fields/well for Opera and 5 fields/well for IC200 were acquired and at least 2 wells per population were used. Features of nuclear morphology, fluorescence intensity inter-channel co-localization, and texture features (Image moments, Haralick, Threshold Adjacency Statistics) were calculated using custom algorithms. A full list of the features used is available from the authors. Values for each cell were generated and exported to Microsoft Excel or MATLAB for further analysis. For Sall2, Olig2, Brn2, Sox2, Oct4, and GFAP immunostaining, images were captured on an IC200-KIC (Vala Sciences) using a ×20 objective. Between 3 and 8 fields per well were acquired and analyzed using Acapella 2.6 (PerkinElmer). For all nuclear markers, average intensities in nucleus or fold change compared to untreated cells are shown. Unless stated otherwise, at least 3 wells and a minimum of 300 cells for each condition were compared using the unpaired two-tailed t-test.

[3] = system: GBM2 cells; assay: RNAseq and transcriptomic analysis; format: cell-based, human; conditions: for gene expression changes (GO terms) compared with those induced by serum or BMP4 / ranking by average Euclidean distance from serum- or Bmp4-treated cells (MIEL- and gene expression-based): GBM2, 3 days; for Euclidean distance (FPKM, all expressed genes) of treated cells to serum or Bmp4 treated cells: GBM2 TPCs; for ranking by average Euclidean distance from serum- or Bmp4-treated cells (MIEL- and gene expression-based): 8 candidate compounds
Experimental: RNAseq and transcriptomic analysis: Total RNA was isolated from GBM2 cells using the RNeasy Kit (Qiagen), 0.5 ug total RNA was used for isolation of mRNAs and library preparation. Library preparation and sequencing was conducted by the SBP genomics core (Sanford-Burnham NCI Cancer Center Support Grant P30 CA030199). PolyA RNA was isolated using the NEBNext® Poly(A) mRNA Magnetic Isolation Module and barcoded libraries were made using the NEBNext® Ultra II™ Directional RNA Library Prep Kit for Illumina® (NEB, Ipswich MA). Libraries were pooled and single end sequenced (1X75) on the Illumina NextSeq 500 using the High output V2 kit (Illumina). Read data was processed in BaseSpace. Reads were aligned to Homo sapiens genome (hg19) using STAR aligner with default settings. Differential transcript expression was determined using the Cufflinks Cuffdiff package. Go term enrichment analysis was conducted using PANTHER v11 using all genes identified as differentially expressed following either serum or Bmp4 treatment. For heat maps showing fold change in expression the FPKM values in each population were divided by the average FPKM values of untreated GBM2. To highlight differences in expression levels between serum and Bmp4 treated GBM2 cells the FPKM values in each sample were z-scored. Zscore=(FPKMObservation−FPKMAverage)/FPKMSD (FPKMObservation−FPKM value obtain through sequencing; FPKMAverage−average of all FPKM values in all samples for a certain gene; FPKMSD−standard deviation of FPKM values for a certain gene). Heat maps were generated using Microsoft Excel conditional formatting function.
Correlation of transcriptomic and image-based profiles: Euclidean distance between untreated, serum or Bmp4 treated GBM2 cells (triplicates for each) was calculated using either transcriptomic data (FPKM) or texture features. Pearson's correlation coefficient (R) was transformed to a t-value using the formula (t=R×SQRT(N−2)/SQRT(1−R2) where N is the number of samples, and R is Pearson correlation coefficient, and the p-value was calculated using Excel tdist(t) function. For compound prioritization, the Euclidean distance between compound treated and serum or Bmp4 treated GBM2 cells was calculated based on either transcriptomic data (FPKM) or image features. The average distance to both serum and Bmp4 treatments was normalized to the average distance of untreated cells to serum and Bmp4.
RNAseq and transcriptomic analysis: Total RNA was isolated from GBM2 cells using the RNeasy Kit (Qiagen), 0.25 μg total RNA was used to isolate mRNAs and for library preparation. Library preparation and sequencing were conducted by the SBP genomics core (Sanford-Burnham NCI Cancer Center Support Grant P30 CA030199). PolyA RNA was isolated using the NEBNext® Poly(A) mRNA Magnetic Isolation Module, and barcoded libraries were made using the NEBNext® Ultra II™ Directional RNA Library Prep Kit for Illumina® (NEB, Ipswich MA). Libraries were pooled and single-end sequenced (1×75) on the Illumina NextSeq 500 using the High-Output V2 kit (Illumina). Read data, processed in BaseSpace, were aligned to Homo sapiens genome (hg19) using STAR aligner with default settings. Differential transcript expression was determined using the Cufflinks Cuffdiff package. For heat maps showing fold change in expression, FPKM values in each HDACi-treated population were divided by the average FPKM values of DMSO-treated GBM2 and values shown as log 2 of the ratio. Go enrichment analysis was conducted using PANTHER v11 using all genes identified as differentially expressed following either serum or Bmp4 treatment. To highlight differences in expression levels between serum- and Bmp4-treated GBM2 cells, FPKM values in each sample were z-scored. Zscore=(FPKMObservation−FPKMAverage)/FPKMSD (FPKMObservation−FPKM value obtain through sequencing; FPKMAverage−average of all FPKM values in all samples for a certain gene; FPKMSD−standard deviation of FPKM values for a certain gene). […]

[4] = system: TPCs; assay: Growth rate of treated glioblastoma cells; conditions: GBM2, 3 days, compared with serum/Bmp4 treatment

For `C[C@]12CC[C@@H]3c4ccc(O)cc4CC[C@H]3[C@@H]1CC[C@@H]2O` [17 beta-estradiol], the “outcome in high throughput screening using primary mouse hepatocytes (miBioAge)” value (shortened to “outcome in high throughput screening”) [1] was “positive controls”.
With `C[C@]12CC[C@H](O)C[C@H]1CC[C@@H]1[C@@H]2CC[C@]2(C)[C@@H](C3=CC(=O)OC3)CC[C@]12O` [Digitoxigenin] the Sox2 expression [2] was “reduce”, the “expression of the core transcription factors” value [2] was “downregulate” and the “Sall2 and Brn2 expression” value [2] was “significant reduction”. For the same compound, the “gene expression changes (GO terms) compared with those induced by serum or BMP4” value (“gene expression changes (GO terms)” below) [3] was “markedly different” and the “Euclidean distance (FPKM, all expressed genes) of treated cells to serum or Bmp4 treated cells” value [3] was “Neither Digitoxigenin nor Digoxin reduced the distance”.
For `C[C@H]1O[C@@H](O[C@H]2[C@@H](O)C[C@H](O[C@H]3[C@@H](O)C[C@H](O[C@H]4CC[C@@]5(C)[C@H](CC[C@@H]6[C@@H]5C[C@@H](O)[C@]5(C)[C@@H](C7=CC(=O)OC7)CC[C@]65O)C4)O[C@@H]3C)O[C@@H]2C)C[C@H](O)[C@@H]1O` [Digoxin], the Sox2 expression [2] was “reduced”, the “expression of the core transcription factors” value [2] was “downregulate” and the “Sall2 and Brn2 expression” value [2] was “significant reduction”. For the same compound, the “gene expression changes (GO terms)” value [3] was “markedly different”, the “ranking by average Euclidean distance from serum- or Bmp4-treated cells (MIEL- and gene expression-based)” value [3] was “lowest-ranking candidate” and the “gene expression changes (GO terms)” value ([3]; listed as digoxin) was “rather different”. The “Euclidean distance (FPKM, all expressed genes) of treated cells to serum or Bmp4 treated cells” value [3] was “Neither Digitoxigenin nor Digoxin reduced the distance”, the “growth rate of drug-treated cells” value [4] was “stronger reduction; also recorded: cytostatic” and the “growth rate of drug-treated cells” value ([4]; listed as digoxin) was “cytostatic”.
`COc1ncc(-c2ccc3nccc(-c4ccnnc4)c3c2)cc1NS(=O)(=O)c1ccc(F)cc1F` [GSK2126458] was tested, and the “outcome in high throughput screening” value [1] was “hits to be tested in animal models”.
In the case of `CC(C)n1nc(-c2ccc3oc(N)nc3c2)c2c(N)ncnc21` [INK128], the “outcome in high throughput screening” value [1] is reported as “hits to be tested in animal models”.
With `CN(C)C(=N)N=C(N)N` [Metformin] the “outcome in high throughput screening” value [1] was “positive controls”.
With `CC(Cc1ccc(O)c(O)c1)C(C)Cc1ccc(O)c(O)c1` (centres unmarked) [NDGA] the “outcome in high throughput screening” value [1] was “positive controls” and the “shift of epigenetic signature of old cells towards that of young cells” value [1] was “Statistically significant dose-dependent shifts”.
`Cn1c(=O)n(-c2ccc(C(C)(C)C#N)cc2)c2c3cc(-c4cnc5ccccc5c4)ccc3ncc21` [NVP-BEZ235] was tested, and the “outcome in high throughput screening” value [1] was “hits to be tested in animal models”.
`NC(=O)c1ccc[n+]([C@@H]2O[C@H](COP(=O)([O-])O)[C@@H](O)[C@H]2O)c1` [Nicotiamide mononucleotide, Nicotinamide mononucleotide] was tested, and the “outcome in high throughput screening” value [1] was “inactive molecules”.
With `O=C(O)C(Cc1c[nH]c2ccccc12)N1C(=O)c2ccccc2C1=O` (centres unmarked) [RG108] the “outcome in high throughput screening” value [1] was “inactive molecules”.
`CC(=O)Oc1ccccc1C(=O)O` [aspirin] was tested, and the “shift of epigenetic signature of old cells towards that of young cells” value [1] was “Statistically significant dose-dependent shifts”.
With `COc1cc([C@@H]2c3cc4c(cc3[C@@H](O[C@@H]3O[C@@H]5CO[C@@H](C)O[C@H]5[C@H](O)[C@H]3O)[C@H]3COC(=O)[C@H]23)OCO4)cc(OC)c1O` [etoposide] the “ranking by average Euclidean distance from serum- or Bmp4-treated cells (MIEL- and gene expression-based)” value [3] was “top candidate”.
With `NC(=O)c1ccc[n+]([C@@H]2O[C@H](CO)[C@@H](O)[C@H]2O)c1` [nicotinamide riboside] the “outcome in high throughput screening” value [1] was “inactive molecules”.
